In patent publication US20260317272A1, “USE OF STROBILURIN TYPE COMPOUNDS FOR COMBATING PHYTOPATHOGENIC FUNGI CONTAINING AN AMINO ACID SUBSTITION F129L IN THE MITOCHONDRIAL CYTOCHROME B PROTEIN CONFERRING RESISTANCE TO QO INHIBITORS XVI” (priority 2023, published 2026):

Tests used:
Puccinia sorghi = assay: Use Example 8: protective control of corn rust on corn (PUCCSO P1); type: in vivo; conditions: 16 ppm, untreated 80%
Protocol: (§1) The compound was dissolved in a mixture of acetone and/or dimethylsulfoxide and the wetting agent/emulsifier Wettol, which is based on ethoxylated alkylphenoles, in a ratio (volume) solvent-emulsifier of 99 to 1 to give a total volume of 5 ml. Subsequently, water was added to total volume of 100 ml. This stock solution was then diluted with the described solvent-emulsifier-water mixture to the final concentration given in the tables below.
Use Example 8. Protective Control of Corn Rust on Corn Caused by Puccinia sorghi (PUCCSO P1)
The primary leaves of potted corn seedling were sprayed to run-off with previously described spray solution, containing the concentration of active ingredient or their mixture as described below. One day later the plants were dusted with before harvested spores of Puccinia sorghi. To ensure the success of the artificial inoculation, the plants were transferred to a humid chamber without light and a relative humidity of […] and 20 to 24° C. and were there incubated for about fourteen days. The extent of fungal attack on the primary leaves was visually assessed as % diseased leaf area.

Sclerotinia sclerotiorum = assay: Use Example 13: preventative fungicidal control of white mold on soy beans (SCLESC P1 mycelium); type: in vivo; conditions: 63 ppm, untreated 85%
Protocol: as §1
Use Example 13. Preventative Fungicidal Control of White Mold on Soy Beans Caused by Sclerotinia sclerotiorum (SCLESC P1 Mycelium)
Young seedlings of soy beans were grown in pots. These plants were sprayed to run-off with previously described spray solution, containing the concentration of active ingredient or mixture mentioned in the table below. The next day the treated plants were inoculated with a biomalt suspension, containing the mycelium of Sclerotinia sclerotiorum. Then the trial plants were cultivated for 6 days in a greenhouse chamber at 23° C. and a relative humidity between 80 and 85%. The extent of fungal attack on the leaves was visually assessed as % diseased leaf area.

Row | Compound | Diseased leaf area (%) (Puccinia sorghi) | Diseased leaf area (%) (Sclerotinia sclerotiorum)
1 | CNC(=O)/C(=N/OC)c1cccc(C)c1CO/N=C(\COC)c1ccc(F)c(F)c1 [Compound 5, (2E)-2-[2-[[(Z)-[1-(3,4-difluorophenyl)-2-methoxy-ethylidene]amino]oxymethyl]-3-methylphenyl]-2-methoxyimino-N-methyl-acetamide] | 0 | 
2 | CNC(=O)/C(=N/OC)c1cccc(C)c1CO/N=C(\COC)c1c(F)cc(OC)cc1F [Compound 7, (2E)-2-[2-[[(Z)-[1-(2,6-difluoro-4-methoxy-phenyl)-2-methoxy-ethylidene]amino]oxymethyl]-3-methyl-phenyl]-2-methoxyimino-N-methyl-acetamide] | 12 | 4
